According to patent US9163013B2, “Use of 1H-indazole-3-carboxamide compounds as glycogen synthase kinase 3 beta inhibitors” (AZIENDE CHIMICHE RIUNITE ANGELINI FRANCESCO A.C.R.A.F. …, priority 2012, dated 2015):
“And” between values parts separate entries of the source, which are not always exact repeats. Identical values can stand only once.

The compounds below were run against T1, human GSK-3β (Homo sapiens (Human), UniProt P49841) (assay: Activity on human GSK-3β, substrate phosphorylation measured by LANCE technology). Details: 10 μM, duplicate, human recombinant GSK-3β, 90 minutes at 22° C.
T1 sequence (P49841 whole entry): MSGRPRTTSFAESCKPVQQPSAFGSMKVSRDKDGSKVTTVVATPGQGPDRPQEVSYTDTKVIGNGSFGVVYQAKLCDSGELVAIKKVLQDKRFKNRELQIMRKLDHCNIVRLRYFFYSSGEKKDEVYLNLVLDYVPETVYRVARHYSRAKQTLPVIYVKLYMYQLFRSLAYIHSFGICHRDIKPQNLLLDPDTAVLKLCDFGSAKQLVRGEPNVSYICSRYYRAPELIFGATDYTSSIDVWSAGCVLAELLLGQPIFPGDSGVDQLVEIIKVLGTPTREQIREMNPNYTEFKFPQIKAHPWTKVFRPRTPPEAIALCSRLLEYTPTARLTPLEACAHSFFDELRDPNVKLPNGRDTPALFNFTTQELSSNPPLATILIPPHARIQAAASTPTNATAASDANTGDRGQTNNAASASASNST
Type: biochemical
Description: Activity on human GSK-3β was assessed using the following methods (according to Meijer et al., Chem. Biol., 2003-10:1255-1266).
In a first screening assay, compounds were tested in duplicate at a concentration of 10 μM.
Human recombinant enzyme GSK-3β was incubated for 90 minutes at 22° C. in the presence of compounds or vehicle in a reaction buffer containing ATP plus 100 nM unphosphorylated specific substrate peptide (Ulight-[…]-amide). Substrate phosphorylation was measured by LANCE technology (PerkinElmer, Conn., USA).
The results, reported in the following Table 4, are expressed as a percent of inhibition of control specific activity obtained in the presence of the test compounds (as % inhibition at 10 μm).
(§1) In a second assay, the same compounds were assayed at five concentrations ranging from 100 μM to 10 nM with ten-fold dilutions in duplicate. Compounds 1 to 7, 9, 11 and 13 to 26 were tested using the same first assay, compounds 8, 10, 12, and 27 to 31 were tested in another assay based on the binding and displacement of AlexaFluor® 647 labeled, ATP-competitive Kinase inhibitor scaffold using LanthaScreen™ TR-FRET technology Eu Kinase assay packet according to manufacturer's instruction (Life Technologies, Italy).
(§2) The IC50 values (concentration causing a half maximal inhibition of control specific activity), reported in table 4, were determined by non-linear regression analysis of the inhibition curves generated with mean replicate values using Hill equation curve fitting.

| % Inhibition [10 μM] | inhibition at 10 µM | SMILES |
| --- | --- | --- |
| 91% | > 90% | COc1ccc(CCN2CCC(CNC(=O)c3n[nH]c4ccc(OC)cc34)CC2)cc1 [Compound 2, 5-methoxy-N-({1-[2-(4-methoxyphenyl)ethyl]piperidin-4-yl}methyl)-1H-indazole-3-carboxamide] |

Same assay, conditions: LANCE phosphorylation assay; five concentrations 100 μM to 10 nM, duplicate; read-out: IC50

| SMILES | IC50 |
| --- | --- |
| COc1ccc2[nH]nc(C(=O)NCC3CCN(Cc4ccc(OCc5ccccc5)cc4)CC3)c2c1 [Compound 5, N-({1-[4-(benzyloxy)benzyl]piperidin-4-yl}methyl)-5-methoxy-1H-indazole-3-carboxamide] | 350 nM |
| COC(=O)c1coc(CN2CCC(CNC(=O)c3n[nH]c4ccc(Br)cc34)CC2)n1 [Compound 11, Methyl 2-{[4-({[(5-bromo-1H-indazol-3-yl)carbonyl]amino}methyl)piperidin-1-yl]methyl}-1,3-oxazole-4-carboxylate] | 360 nM |
| CCOC(=O)c1nc(CN2CCC(CNC(=O)c3n[nH]c4ccc(OC)cc34)CC2)cs1 [Compound 13, Ethyl 4-{[4-({[(5-methoxy-1H-indazol-3-yl)carbonyl]amino}methyl)piperidin-1-yl]methyl}-1,3-thiazole-2-carboxylate] | 950 nM |
| CCOC(=O)c1ccc(CN2CCC(CNC(=O)c3n[nH]c4ccc(Br)cc34)CC2)o1 [Compound 15, Ethyl 5-{[4-({[(5-bromo-1H-indazol-3-yl)carbonyl]amino}methyl)piperidin-1-yl]methyl}furan-2-carboxylate] | 260 nM |
| COc1ncccc1-c1ccc2[nH]nc(C(=O)NCC3CCN(Cc4ccc(C(=O)O)o4)CC3)c2c1 [Compound 16, 5-({4-[({[5-(2-Methoxypyridin-3-yl)-1H-indazol-3-yl]carbonyl}amino)methyl]piperidin-1-yl}methyl)furan-2-carboxylic acid hydrate] | 360 nM |
| O=C(O)c1ccc(CN2CCC(CNC(=O)c3n[nH]c4ccc(-c5cccc(F)c5F)cc34)CC2)o1 [Compound 19, 5-({4-[({[5-(2,3-Difluorophenyl)-1H-indazol-3-yl]carbonyl}amino)methyl]piperidin-1-yl}methyl)furan-2-carboxylic acid] | 10 nM |
| O=C(O)c1ccc(CN2CCC(CNC(=O)c3n[nH]c4ccc(-c5ccccc5F)cc34)CC2)o1 [Compound 20, 5-({4-[({[5-(2-Fluorophenyl)-1H-indazol-3-yl]carbonyl}amino)methyl]piperidin-1-yl}methyl)furan-2-carboxylic acid hydrate] | 20 nM |
| COc1ccc2[nH]nc(C(=O)NCC3CCN(CCN4C[C@@H](C)O[C@@H](C)C4)CC3)c2c1 [Compound 25, N-[(1-{2-[(2R,6S)-2,6-dimethylmorpholin-4-yl]ethyl}piperidin-4-yl)methyl]-5-methoxy-1H-indazole-3-carboxamide] | > 1000 nM and 1400 nM |
| COc1ccc2[nH]nc(C(=O)NCC3CCN(CCCN4C[C@@H](C)O[C@@H](C)C4)CC3)c2c1 [Compound 26, N-[(1-{3-[(2R,6S)-2,6-dimethylmorpholin-4-yl]propyl}piperidin-4-yl)methyl]-5-methoxy-1H-indazole-3-carboxamide] | > 1000 nM and 2100 nM |

Results, then the compound that gave them:

| IC50 | SMILES |
| --- | --- |
| < 600 nM and 560 nM | COc1ccc(CCN2CCC(CNC(=O)c3n[nH]c4ccc(OC)cc34)CC2)cc1 [Compound 2, 5-methoxy-N-({1-[2-(4-methoxyphenyl)ethyl]piperidin-4-yl}methyl)-1H-indazole-3-carboxamide] |
| 310 nM | COc1ccc2[nH]nc(C(=O)NCC3CCN(Cc4ccc(Cl)cc4Cl)CC3)c2c1 [Compound 3, N-{[1-(2,4-dichlorobenzyl)piperidin-4-yl]methyl}-5-methoxy-1H-indazole-3-carboxamide] |
| 640 nM | COc1ccc2[nH]nc(C(=O)NCC3CCN(Cc4ccc(C(F)(F)F)cc4)CC3)c2c1 [Compound 4, 5-methoxy-N-({1-[4-(trifluoromethyl)benzyl]piepridin-4-yl}methyl)-1H-indazole-3-carboxamide] |
| 400 nM | COc1ccc2[nH]nc(C(=O)NCC3CCN(Cc4ccc(O)cc4)CC3)c2c1 [Compound 6, N-{[1-(4-hydroxybenzyl)piperidin-4-yl]methyl}-5-methoxy-1H-indazole-3-carboxamide] |
| 210 nM | COC(=O)c1coc(CN2CCC(CNC(=O)c3n[nH]c4ccc(OC)cc34)CC2)n1 [Compound 9, Methyl 2-{[4-({[(5-methoxy-1H-indazol-3-yl)carbonyl]amino}methyl)piperidin-1-yl]methyl}-1,3-oxazole-4-carboxylate] |
| 230 nM | COC(=O)c1ccoc1CN1CCC(CNC(=O)c2n[nH]c3ccc(OC)cc23)CC1 [Compound 14, Methyl 2-{[4-({[(5-methoxy-1H-indazol-3-yl)carbonyl]amino}methyl)piperidin-1-yl]methyl}furan-3-carboxylate] |
| 20 nM | COc1ccc(-c2ccc3[nH]nc(C(=O)NCC4CCN(Cc5ccc(C(=O)O)o5)CC4)c3c2)cn1 [Compound 17, 5-({4-[({[5-(6-Methoxypyridin-3-yl)-1H-indazol-3-yl]carbonyl}amino)methyl]piperidin-1-yl}methyl)furan-2-carboxylic acid hydrate] |
| 300 nM | COc1ccc(-c2ccc3[nH]nc(C(=O)NCC4CCN(Cc5ccc(C(=O)O)o5)CC4)c3c2)cc1 [Compound 18, 5-({4-[({[5-(4-Methoxyphenyl)-1H-indazol-3-yl]carbonyl}amino)methyl]piperidin-1-yl}methyl)furan-2-carboxylic acid hydrate] |
| 210 nM | O=C(O)c1ccc(CN2CCC(CNC(=O)c3n[nH]c4ccc(Br)cc34)CC2)o1 [Compound 22, 5-{[4-({[(5-Bromo-1H-indazol-3-yl)carbonyl]amino}methyl)piperidin-1-yl]methyl}furan-2-carboxylic acid] |
| 330 nM | CCOC(=O)c1ccc(CN2CCC(CNC(=O)c3n[nH]c4ccc(OC)cc34)CC2)o1 [Compound 23, Ethyl 5-{[4-({[(5-methoxy-1H-indazol-3-yl)carbonyl]amino}methyl)piperidin-1-yl]methyl}furan-2-carboxylate] |

What follows are compounds tested against T1, human GSK-3β (assay: LanthaScreen TR-FRET Eu Kinase binding and displacement assay). Details: five concentrations 100 μM to 10 nM, duplicate.
Description: as §1, §2

| IC50 | SMILES |
| --- | --- |
| 170 nM | COc1ccc2[nH]nc(C(=O)NCC3CCN(Cc4nc(C(=O)O)cs4)CC3)c2c1 [Compound 8, 2-{[4-({[(5-Methoxy-1H-indazol-3-yl)carbonyl]amino}methyl)piperidin-1-yl]methyl}-1,3-thiazole-4-carboxylic acid] |
| 310 nM | COc1ccc2[nH]nc(C(=O)NCC3CCN(Cc4nc(C(=O)O)co4)CC3)c2c1 [Compound 10, 2-{[4-({[(5-Methoxy-1H-indazol-3-yl)carbonyl]amino}methyl)piperidin-1-yl]methyl}-1,3-oxazole-4-carboxylic acid hydrate] |
| 310 nM | COc1ccc2[nH]nc(C(=O)NCC3CCN(CCC4CCCC(C)C4)CC3)c2c1 (stereo not drawn) [Compound 27, 5-methoxy-N-({1-[2-(3-methylcyclohexyl)ethyl]piperidin-4-yl}methyl)-1H-indazole-3-carboxamide] |
| 450 nM | COc1ccc2[nH]nc(C(=O)NCC3CCN(Cc4ccnc(C(=O)O)c4)CC3)c2c1 [Compound 28, 4-{[4-({[(5-methoxy-1H-indazol-3-yl)carbonyl]amino}methyl)piperidin-1-yl]methyl}pyridine-2-carboxylic acid] |
| 320 nM | COc1ccc2[nH]nc(C(=O)NCC3CCN(Cc4ccc(C(=O)O)nc4)CC3)c2c1 [Compound 29, Sodium 5-{[4-({[(5-methoxy-1H-indazol-3-yl)carbonyl]amino}methyl)piperidin-1-yl]methyl}pyridine-2-carboxylate] |
| 310 nM | COc1ccc2[nH]nc(C(=O)NCC3CCN(Cc4noc(C(N)=O)n4)CC3)c2c1 [Compound 30, N-({1-[(5-carbamoyl-1,2,4-oxadiazol-3-yl)methyl]piperidin-4-yl}methyl)-5-methoxy-1H-indazole-3-carboxamide] |
